Laboratory results as given in article PMC5572576 (The Lancet. Oncology, 2017).

System: patients with R/R AML
Conditions: in vivo

For `CCc1nc(C(N)=O)c(Nc2ccc(N3CCC(N4CCN(C)CC4)CC3)c(OC)c2)nc1NC1CCOCC1` [gilteritinib], the “Elevated blood phosphocreatine kinase, Grade 4” value (human) was 4 (1·6%) n (%), the “Epistaxis, Grade 1” value (human) was 36 (14%) n (%) and the “Epistaxis, Grade 2” value (human) was 9 (4%) n (%). For the same compound, the “Fall, Grade 1” value (human) was 17 (7%) n (%), the “Fall, Grade 2” value (human) was 10 (4%) n (%) and the “Fall, Grade 3” value (human) was 7 (3%) n (%). For the same compound, the “Fall, Grade 4” value (human) was 1 (0.4) n (%), the “Fatigue, Grade 1” value (human) was 31 (12%) n (%) and the “Fatigue, Grade 2” value (human) was 37 (15%) n (%). For the same compound, the “Fatigue, Grade 3” value (human) was 15 (6%) n (%), the “Febrile neutropenia, Grade 3” value (human) was 9 (36%) n (%) and the “Febrile neutropenia, Grade 4” value (human) was 7 (3%) n (%). For the same compound, the “Febrile neutropenia, Grade 5” value (human) was 1 (0·4%) n (%), the “Fungal pneumonia, Grade 3” value (human) was 11 (4%) n (%) and the “Gastrointestinal hemorrhage, Grade 3” value (human) was 4 (1·6%) n (%). For the same compound, the “Gastrointestinal hemorrhage, Grade 4” value (human) was 1 (0·4%) n (%), the “Grade 3/4 adverse event: anemia” value (human) was 24% and the “Grade 3/4 adverse event: febrile neutropenia” value (human) was 39%. For the same compound, the “Grade 3/4 adverse event: pneumonia” value (human) was 11%, the “Grade 3/4 adverse event: sepsis” value (human) was 11% and the “Grade 3/4 adverse event: thromobocytopenia” value (human) was 13%. For the same compound, the “Headache, Grade 1” value (human) was 22 (9%) n (%), the “Headache, Grade 2” value (human) was 6 (2%) n (%) and the “Hyperglycemia, Grade 3” value (human) was 8 (3%) n (%). The “Hyperglycemia, Grade 4” value (human) was 1 (0·4%) n (%), the “Hyperphosphatemia, Grade 3” value (human) was 14 (6%) n (%) and the “Hyperphosphatemia, Grade 4” value (human) was 3 (1·2%) n (%). For the same compound, the “Hypertension, Grade 1” value (human) was 6 (2%) n (%), the “Hypertension, Grade 2” value (human) was 11 (4%) n (%) and the “Hypertension, Grade 3” value (human) was 8 (3%) n (%). The “Hyperuricemia, Grade 3” value (human) was 5 (2%) n (%), the “Hyperuricemia, Grade 4” value (human) was 1 (0·4%) n (%) and the “Hypoalbuminemia, Grade 1” value (human) was 5 (2%) n (%). The “Hypoalbuminemia, Grade 2” value (human) was 22 (9%) n (%), the “Hypoalbuminemia, Grade 3” value (human) was 5 (2%) n (%) and the “Hypocalcaemia, Grade 1” value (human) was 13 (5%) n (%). The “Hypocalcaemia, Grade 2” value (human) was 15 (6%) n (%), the “Hypocalcaemia, Grade 3” value (human) was 14 (6%) n (%) and the “Hypocalcaemia, Grade 4” value (human) was 1 (0·4%) n (%). The “Hypokalaemia, Grade 1” value (human) was 22 (9%) n (%), the “Hypokalaemia, Grade 2” value (human) was 14 (6%) n (%) and the “Hypokalaemia, Grade 3” value (human) was 7 (3%) n (%). For the same compound, the “Hypokalaemia, Grade 4” value (human) was 2 (0·8%) n (%), the “Hypomagnesemia, Grade 1” value (human) was 29 (12%) n (%) and the “Hypomagnesemia, Grade 2” value (human) was 2 (0·8%) n (%). For the same compound, the “Hyponatraemia, Grade 1” value (human) was 18 (7%) n (%), the “Hyponatraemia, Grade 2” value (human) was 4 (1·6%) n (%) and the “Hyponatraemia, Grade 3” value (human) was 10 (4%) n (%). For the same compound, the “Hyponatraemia, Grade 4” value (human) was 2 (0·8%) n (%), the “Hypotension, Grade 1” value (human) was 7 (3%) n (%) and the “Hypotension, Grade 2” value (human) was 21 (8%) n (%). For the same compound, the “Hypotension, Grade 3” value (human) was 16 (6%) n (%), the “Hypotension, Grade 4” value (human) was 2 (0·8%) n (%) and the “Hypoxia, Grade 1” value (human) was 1 (0·4%) n (%). The “Hypoxia, Grade 2” value (human) was 8 (3%) n (%), the “Hypoxia, Grade 3” value (human) was 13 (5%) n (%) and the “Hypoxia, Grade 4” value (human) was 5(2%) n (%). For the same compound, the “Hypoxia, Grade 5” value (human) was 1 (0·4%) n (%), the “Increased transaminase, Grade 3” value (human) was 6 (2%) n (%) and the “Insomnia, Grade 1” value (human) was 14 (6%) n (%). For the same compound, the “Insomnia, Grade 2” value (human) was 10 (4%) n (%), the “Leukocytosis, Grade 3” value (human) was 9 (4%) n (%) and the “Leukocytosis, Grade 4” value (human) was 2 (0·8%) n (%). The “Leukopenia, Grade 3” value (human) was 2 (0·8%) n (%), the “Leukopenia, Grade 4” value (human) was 3 (1·2%) n (%) and the “Lung infection, Grade 3” value (human) was 7 (3%) n (%). The “Lung infection, Grade 5” value (human) was 1 (0·4%) n (%), the “Mucosal inflammation, Grade 3” value (human) was 5 (2%) n (%) and the “Mucosal inflammation, Grade 4” value (human) was 2 (0·8%) n (%). The “Multi-organ failure, Grade 5” value (human) was 7 (3%) n (%), the “Muscle weakness, Grade 3” value (human) was 5 (2%) n (%) and the “Nausea, Grade 1” value (human) was 30 (12%) n (%). For the same compound, the “Nausea, Grade 2” value (human) was 19 (8%) n (%), the “Nausea, Grade 3” value (human) was 5 (2%) n (%) and the “Neutropenia, Grade 2” value (human) was 2 (0·8%) n (%). The “Neutropenia, Grade 3” value (human) was 2 (0·8%) n (%), the “Neutropenia, Grade 4” value (human) was 18 (7%) n (%) and the “Neutropenia, Grade 5” value (human) was 1 (0·4%) n (%). For the same compound, the “Patients requiring dose reductions” value (human) was 10%, the “Patients with maximum post-baseline QTcF interval >500 ms” value (human) was 4% and the “Pleural effusion, Grade 3” value (human) was 5 (2%) n (%). For the same compound, the “Pneumonia, Grade 1” value (human) was 1 (0·4%) n (%), the “Pneumonia, Grade 2” value (human) was 3 (1·2%) n (%) and the “Pneumonia, Grade 3” value (human) was 26 (10%) n (%). The “Pneumonia, Grade 4” value (human) was 1 (0·4%) n (%), the “Pneumonia, Grade 5” value (human) was 4 (1·6%) n (%) and the “Progressive AML, Grade 3” value (human) was 2 (0.8) n (%). For the same compound, the “Progressive AML, Grade 5” value (human) was 41 (16%) n (%), the “Pyrexia, Grade 1” value (human) was 36 (14%) n (%) and the “Pyrexia, Grade 2” value (human) was 16 (6%) n (%). The “Pyrexia, Grade 3” value (human) was 13 (5%) n (%), the “QT Prolongation, Grade 3” value (human) was 8 (3%) n (%) and the “Respiratory failure, Grade 3” value (human) was 2 (0·8%) n (%). For the same compound, the “Respiratory failure, Grade 4” value (human) was 5 (2%) n (%), the “Respiratory failure, Grade 5” value (human) was 7 (3%) n (%) and the “Sepsis, Grade 2” value (human) was 1 (0·4%) n (%). The “Sepsis, Grade 3” value (human) was 5 (2%) n (%), the “Sepsis, Grade 4” value (human) was 23 (9%) n (%) and the “Sepsis, Grade 5” value (human) was 7 (3%) n (%). For the same compound, the “Septic shock, Grade 4” value (human) was 2 (0·8%) n (%), the “Septic shock, Grade 5” value (human) was 4 (1·6%) n (%) and the “Serious AE considered related to treatment: acute renal failure” value (human) was 2%. The “Serious AE considered related to treatment: febrile neutropenia” value (human) was 2%, the “Serious AE considered related to treatment: pyrexia” value (human) was 1% and the “Serious AE considered related to treatment: sepsis” value (human) was 1%. For the same compound, the “Serious adverse event: acute renal failure” value (human) was 10%, the “Serious adverse event: bacteremia” value (human) was 6% and the “Serious adverse event: febrile neutropenia” value (human) was 31%. The “Serious adverse event: pneumonia” value (human) was 11%, the “Serious adverse event: progressive disease” value (human) was 17% and the “Serious adverse event: pyrexia” value (human) was 8%. For the same compound, the “Serious adverse event: respiratory failure” value (human) was 6%, the “Serious adverse event: sepsis” value (human) was 14% and the “Skin infection, Grade 3” value (human) was 5 (2%) n (%). The “Stomatitis, Grade 1” value (human) was 12 (5%) n (%), the “Stomatitis, Grade 2” value (human) was 10 (4%) n (%) and the “Subdural hematoma, Grade 3” value (human) was 4 (1·6%) n (%). The “Subdural hematoma, Grade 4” value (human) was 2 (0·8%) n (%), the “Syncope, Grade 3” value (human) was 13 (5%) n (%) and the “Thrombocytopenia, Grade 1” value (human) was 1 (0·4%) n (%). For the same compound, the “Thrombocytopenia, Grade 2” value (human) was 5 (2%) n (%), the “Thrombocytopenia, Grade 3” value (human) was 2 (0·8%) n (%) and the “Thrombocytopenia, Grade 4” value (human) was 31 (12%) n (%). For the same compound, the “Treatment-related mortality from neutropenia” value (human) was under 1%, the “Vomiting, Grade 1” value (human) was 35 (14%) n (%) and the “Vomiting, Grade 2” value (human) was 7 (3%) n (%). For the same compound, the “Vomiting, Grade 3” value (human) was 5 (2%) n (%) and the “Deaths considered possibly/probably related to treatment” value was “Seven”.
